Experimental data as given in publication PMC7359039, “Peptides based on the reactive center loop of Manduca sexta serpin-3 block its protease inhibitory function” (Scientific Reports, 2020).

Key:
serpin-3∆N [1] = experiment: Time course of inactivation of serpin-3∆N by pentapeptides; type: biochemical, Manduca sexta; details: peptide 400 nmol, serpin-3∆N 720 ng, 37 °C; for suppression of serpin-3∆N inhibitory activity by 40 min: aliquots with 72 ng PAP3 10 min room temperature, IEARase activity
Protocol: To examine the time course of peptide interaction with serpin-3ΔN, pre-dried Ac-SVAFS-NH2 or Ac-SVAFS-COO^- (400 nmol) were incubated with 40 μL purified serpin-3ΔN (720 ng) supplemented with 40 μL BSA (80 μg) at 37 °C for 1 h. At 0, 10, 20, 40 and 60 min, 12 μL aliquots were withdrawn and immediately incubated with 72 ng of PAP3 at room temperature for 10 min, followed by measuring residual PAP3 activity with […] in 0.1 M Tris, 0.1 M NaCl, 5 mM CaCl2, pH 8.0.

[2] = system: proPO activation system in plasma; experiment: proPO activation in plasma with added serpin-3∆N, untreated or pre-incubated with peptide; type: biochemical, Manduca sexta; details: peptide 10 nmol pre-incubated with serpin-3∆N 0.1 µg at 37 °C 2 h, 2 µl plasma, one unit = 0.001 change of OD470 per minute, mean ± SD, n = 4 larvae
Protocol: Hemolymph was collected from day 2 fifth instar larvae and centrifuged at 12,000 rpm for 25 min at 4 °C to remove hemocytes, to prepare plasma samples containing the proPO activation system. To examine the effect of pre-incubation of peptide with serpin before exposure to plasma, Ac-SVAFS-COO^− (10 nmol in TFE) or TFE alone were dried in wells of a 96-well plate and then incubated with 4 µL serpin-3ΔN (0.1 µg) at 37 °C for 2 h, followed by incubation with 2 μl plasma at room temperature for 10 min. Then the proPO cascade was stimulated by addition of 1 μg Micrococcus luteus to activate the proPO protease cascade or filter-sterilized 0.85% NaCl as a control. These mixtures were incubated at room temperature for 10 min, and then PO activity was measured by adding 100 μl of 4 mM dopamine as substrate in 50 mM sodium phosphate, pH 6.5. PO activity was measured by detecting increase in absorbance at 470 nm. One unit of PO activity was defined as 1,000 × ∆A470/minute. Three replicates with four different larval plasma samples were examined. Paired one-way ANOVA with Tukey’s multiple comparison as post test was performed in GraphPad Prism.

serpin-3∆N [3] = experiment: Circular dichroism thermal stability of serpin-3∆N and its binary complex with peptide; type: physicochemical, Manduca sexta; details: binary complex purified by gel permeation; 10 mM Tris, 5 mM NaCl, pH 8.0; 90 °C highest temperature tested
Protocol: To examine effects of RCL-derived peptides on serpin-3ΔN secondary structure, 600 µL serpin-3ΔN (150 μg) and 1.8 mL Ac-SVAFS-COO^− (25 μmol) were mixed and incubated at 37 °C for 2 h to allow formation of a serpin-peptide binary complex. Then the mixture was subjected to gel permeation chromatography using Superdex 200 10/300 GL ([…]) in 20 mM Tris–HCl, 150 mM NaCl, pH 8.0 to separate binary complex from free peptide. The fractions containing serpin-3ΔN, presumed to be in complex with peptide, were pooled and quantified. Ellipticity of serpin-3ΔN (0.149 mg/ml) or purified binary complex (0.129 mg/ml) in 10 mM Tris, 5 mM NaCl, pH 8.0 was measured in a 0.01 cm cuvette from 190 to 260 nm at 20 °C. The temperature was then increased in 10 °C increments, and the spectra were measured at each temperature from 20 to 90 °C. The ellipticity of the buffer was also recorded and subtracted from that of serpin-3ΔN and binary complex. The data were smoothed by the method of Savitzky-Golay with value of 15[33]. Mean residue ellipticity was calculated as (ellipticity × mean residue weight)/(10 × 0.01 cm × concentration). Three replicates were examined and results were visualized by GraphPad Prism (means ± standard deviation).

[4] = Aqueous solubility of peptides (qualitative); type: physicochemical; details: qualitative statement
serpin-3∆N [5] = experiment: Blocking of serpin-3∆N inhibition of PAP3 by RCL-derived peptides (residual IEARase activity); type: biochemical, Manduca sexta; details: serpin-3∆N 135 ng, 37 °C 2 h; for PAP3 activity (percentage of IEARase activity) after treatment of serpin-3∆N with peptide: peptide 25 nmol pre-dried, then PAP3 108 ng 10 min room temperature, IEAR-pNA 50 µM, mean ± SD, n = 3; for blockage of serpin-3∆N inhibition of PAP3: peptide 25 nmol, PAP3 108 ng
Protocol: Peptides (25 nmol) in TFE or TFE alone as a control were applied to wells of a 96-well plate and allowed to dry (> 1 h). Serpin-3ΔN (135 ng/7.5 µl) was then added to the wells and incubated at 37 °C for 2 h. PAP3 (108 ng) supplemented with 18 μg bovine serum albumin (BSA) in 46.5 µl 20 mM Tris, 150 mM NaCl, pH 8.0,was then added to the wells and incubated for 10 min at room temperature. The PAP3 substrate N-acetyl-Ile-Glu-Ala-Arg-p-nitroanilide (IEAR-pNA) at 50 µM in 0.1 M Tris, 0.1 M NaCl, 5 mM CaCl2, pH 8.0 was then added, and residual PAP3 activity was measured by the change of absorbance at 405 nm over 20 min at room temperature. Percentage of IEARase activity was defined as IEARase activity divided by IEARase activity of PAP3 in the absence of serpin. One-way ANOVA with Tukey’s multiple comparison as post test was performed in GraphPad Prism. Samples for analysis by reducing SDS-PAGE and immunoblotting were prepared in a similar way. Peptides or TFE were dried in 1.5 mL microcentrifuge tubes and incubated with 7.5 µl serpin-3ΔN (135 ng) at 37 °C for 2 h, followed by addition of 46.5 µl PAP3 (108 ng) supplemented with 18 µg BSA. and further incubated for 10 min at room temperature. Samples were then analyzed by reducing SDS-PAGE and immunoblotting as described above.

serpin-3∆N [6] = experiment: SDS-PAGE and immunoblot of serpin-3∆N/PAP3 inhibitory complex formation in presence of peptides; type: biochemical, Manduca sexta; details: peptide 25 nmol, serpin-3∆N 135 ng 37 °C 2 h, PAP3 108 ng 10 min; reducing SDS-PAGE, serpin-3 antiserum
Protocol: Protein concentration was measured using Coomassie Plus Protein Assay Reagent (Thermo Scientific), with bovine serum albumin as a standard. Protein samples analyzed by SDS polyacrylamide gel electrophoresis were mixed with 2 × or 6 × SDS loading buffer (supplemented with β-mercaptoethanol) followed by heating at 95 °C for 5 min. Samples were loaded into wells of 4–12% Bis–Tris NuPAGE gels (Invitrogen) and separated by electrophoresis using MOPS buffer. The gels were stained using Instant Blue (Expedeon) or transferred to nitrocellulose in a semi-dry transfer cell (Bio-Rad). The presence of PAP3 or serpin-3ΔN on the membrane was detected using rabbit antisera to PAP3[31] or serpin-3[13], followed by goat anti-rabit IgG conjugated to alkaline phosphatase (BioRad) and colorimetric detection of immobilized alkaline phosphatase activity.
Peptides (25 nmol) in TFE or TFE alone as a control were applied to wells of a 96-well plate and allowed to dry (> 1 h). Serpin-3ΔN (135 ng/7.5 µl) was then added to the wells and incubated at 37 °C for 2 h. […] The PAP3 substrate N-acetyl-Ile-Glu-Ala-Arg-p-nitroanilide (IEAR-pNA) at 50 µM in 0.1 M Tris, 0.1 M NaCl, 5 mM CaCl2, pH 8.0 was then added, and residual PAP3 activity was measured by the change of absorbance at 405 nm over 20 min at room temperature. […] Samples were then analyzed by reducing SDS-PAGE and immunoblotting as described above.

[7] = system: proPO activation system in plasma (endogenous serpin-3); experiment: proPO activation in plasma mixed directly with peptide; type: biochemical, Manduca sexta; details: plasma incubated with pre-dried peptide 1 h room temperature, then M. luteus 10 min; one unit = 0.001 change of OD470 per minute; mean ± SD, n = 4 larvae
Protocol: For an experiment to test the effects of peptide mixed directly to plasma samples, pre-dried Ac-SVAFS-NH2 (25 nmol) or TFE in wells of a 96-well plate were incubated with 5 μl plasma for 1 h at room temperature, followed by addition of 95 μl of 50 mM sodium phosphate buffer, pH 6.5 supplemented with or without 2 μg of M. luteus (Sigma). After incubation for 10 min at room temperature, PO activity was measured as described above. Three replicates with four different larval plasma samples were examined. Statistical analysis was done as described above.

[8] = biological target: Manduca sexta prophenoloxidase activating protease 3 (PAP3), activated form (Manduca sexta)
[9] = biological target: Manduca sexta serpin-3∆N (Manduca sexta)
[10] = biological target: Manduca sexta serpin-3∆N (Manduca sexta); remark: listed apart in the source

Ac-SVAFS-COO^−
time after which inactivation of serpin-3∆N began to occur (serpin-3∆N [1]): ≤ 10 min | suppression of serpin-3∆N inhibitory activity by 40 min (serpin-3∆N [1]): ~ 100% | PO activity in M. luteus-stimulated plasma with peptide-treated serpin-3∆N added [2]: 8.7 ± 2.8 unit | temperature up to which serpin-3∆N in complex with peptide showed little change in CD spectrum (serpin-3∆N [3]): ≥ 90 °C | aqueous solubility [4]: improved solubility | aqueous solubility ([4]; listed as five residue peptide SVAFS with only an N-terminal acetylated group): much more soluble

Ac-SVAFS-NH2 [pentapeptide from serpin-3 RCL P14-P10, acetylated and amidated]
PAP3 activity (percentage of IEARase activity) after treatment of serpin-3∆N with peptide (serpin-3∆N [5]): 100% ± 6% | blockage of serpin-3∆N inhibition of PAP3 (serpin-3∆N [5]): completely blocked | time after which inactivation of serpin-3∆N began to occur (serpin-3∆N [1]): ≤ 10 min | suppression of serpin-3∆N inhibitory activity by 40 min (serpin-3∆N [1]): ~ 100% | ~75 kDa serpin-3∆N-PAP3 inhibitory complex on immunoblot (serpin-3∆N [6]): absence | PO activity in plasma incubated with peptide, after addition of bacteria [7]: 10.7 ± 5.5 unit | aqueous solubility [4]: very low

Ac-SVAFSATQ-NH2 [octapeptide from serpin-3 RCL P14-P7]
PAP3 activity (percentage of IEARase activity) after treatment of serpin-3∆N with peptide (serpin-3∆N [5]): 59% ± 5% | blockage of serpin-3∆N inhibition of PAP3 (serpin-3∆N [5]): about 50%

Manduca sexta serpin-3∆N (domain or fragment)
residual PAP3 amidase (IEARase) activity on IEAR-pNA after 10 min with serpin-3∆N, percent of PAP3 without serpin [8]: 9%

Ac-SVAFS-NH2 [Ac-SVAFS-NH2]
residual PAP3 amidase (IEARase) activity after serpin-3∆N was pre-treated with 25 nmol peptide (37 °C, 2 h); the peptide blocks inhibition of PAP3 by serpin-3∆N [9]: 100% | time course (0-60 min at 37 °C, 400 nmol peptide) of suppression of serpin-3∆N inhibition of PAP3, read as PAP3 IEARase activity [10]: 100%

Ac-SVAFSATQ-NH2 [Ac-SVAFSATQ-NH2]
residual PAP3 amidase (IEARase) activity after serpin-3∆N was pre-treated with 25 nmol peptide (37 °C, 2 h); the peptide blocks inhibition of PAP3 by serpin-3∆N [9]: 59%

Ac-SVAFS-OH [Ac-SVAFS-COO^−]
time course (0-60 min at 37 °C, 400 nmol peptide) of suppression of serpin-3∆N inhibition of PAP3, read as PAP3 IEARase activity [10]: 100%
